The target in series [1] is S. aureus AgrC in group-II (Staphylococcus aureus, UniProt O33587). Briefly: AgrC inhibition YFP reporter gene assay, S. aureus group-II (AH430). Format: cell-based. The settings on record: for AgrC activity, preliminary screening: 10 μM where stated, YFP fluorescence relative to 1% DMSO control. The protocol: (§1) Reporter Gene Assays: The peptidomimetics were assayed for AgrC I-IV inhibition using the four YFP reporter strains listed in Table 1. Peptide stock solutions were diluted with DMSO in serial dilutions, and 2 μL of the diluted solution was added to each of the wells in a black, clear-bottom 96-well microtiter plate (Costar). An overnight culture of S. aureus YFP strain (Table 1) was diluted 1:50 with fresh BHI (pH 7.35). A […] of diluted culture was added to each well of the microtiter plate containing peptide (resulting in a 1% DMSO solution). Plates were incubated at 37° C. with shaking at 200 rpm for 24 h. Fluorescence (excitation 500 nm/emission 540 nm) and optical density at 600 nm (OD600) of each well were then recorded using a BioTek Synergy 2 plate reader. […] Full dose response curves are provided in Figures S3A-D, S4A-D, S5A-D, S6A-D and S7A-F.
(§2) A first compound library of AIP mimetics was screened for AgrC modulatory activity in all four groups of S. aureus using strains containing yfp reporter. These strains are summarized in Table 1, and include the multidrug-resistant strain USA300 LAC.[17] In these S. aureus reporters, binding of the native AIP to AgrC activates YFP production and can be measured using fluorescence. Thus, compounds capable of inhibiting native AIP binding produce a reduction in fluorescence. Preliminary compound screening was performed at 10 μM in each strain; the full results of preliminary screening are shown in FIGS. 4A-4D. Key findings from these initial screens are summarized here. To simplify the discussion, the full library will be described as three smaller sub-libraries. In the first sub-library (termed nxLX), there is a linker with n=x methylenes, residue 3 is Leu, and residue 4 (X) is Leu, Ile, or Phe (FIG. 2A). The second and third sub-libraries (nxIX and nxFX) are identical to the first sub-library except that there is an Ile or Phe at residue 3, respectively.

For series [2], the target named is S. aureus AgrC in group-III (Staphylococcus aureus, UniProt O33590). Nature of the series: AgrC inhibition YFP reporter gene assay, S. aureus group-III (AH1747). Format: cell-based. The settings on record: for AgrC activity, preliminary screening: 10 μM where stated, YFP fluorescence relative to 1% DMSO control. As for the experimental part: as §1, §2
For series [3], the target named is S. aureus AgrC in group-IV (Staphylococcus aureus, UniProt Q309Z2). Nature of the series: AgrC inhibition YFP reporter gene assay, S. aureus group-IV (AH1872). The settings on record: for AgrC activity, preliminary screening: 10 μM where stated, YFP fluorescence relative to 1% DMSO control. The format is cell-based. As for the experimental part:
as §1, §2
On the technique in general: Reporter assays use an easily measured gene product as a stand-in for the process of interest.

A further series in a line: Solubility in water. Format: physicochemical.
For series [4], the target named is S. aureus AgrC in group-I (Staphylococcus aureus, UniProt A0A0H2XKA3). Briefly: AgrC inhibition YFP reporter gene assay, S. aureus group-I (AH1677). The format is cell-based. The settings on record: for AgrC activity, preliminary screening: 10 μM where stated, YFP fluorescence relative to 1% DMSO control. As for the experimental part:
as §1, §2

Where [5] appears, read: read-out: Group-II IC50, 95% CI, YFP reporter strain, 24 h, value (95% CI).
Where [6] appears, read: read-out: IC50 Group-II, Table 3, against S. aureus AgrC.
Setting [7] is: read-out: Group-III IC50, 95% CI, YFP reporter strain, 24 h, value (95% CI).
Where [8] appears, read: read-out: IC50 Group-III, Table 3, against S. aureus AgrC.
Setting [9] is: read-out: Group-IV IC50, 95% CI, YFP reporter strain, 24 h, value (95% CI).
Setting [10] is: read-out: IC50 Group-IV, Table 3, against S. aureus AgrC.
Setting [11] is: read-out: Group-I IC50, 95% CI, YFP reporter strain, 24 h, value (95% CI).
Setting [12] is: read-out: IC50 Group-I, Table 3, against S. aureus AgrC.

These results are taken from patent US12139464B2, “Simplified structural mimetics of AIPS as quorum sensing inhibitors” (Wisconsin Alumni Research Foundation, priority 2016, dated 2024).

Molecules are shown by their SMILES. Entries after “also recorded” stand apart in the source; their conditions may differ. Read-outs that look alike come from different tables or passages of the source. Positions of bridges follow the written chain, without caps; N, C: chain ends. Non-standard residues stand in square brackets, D forms with d. Residues, ends and D or L forms follow the SMILES beside them. Phe(3-Cl) = N[C@@H](Cc1cccc(Cl)c1)C(=O)O; Phe(4-Cl) = N[C@@H](Cc1ccc(Cl)cc1)C(=O)O; Phe(3-F) = N[C@@H](Cc1cccc(F)c1)C(=O)O; Cha = N[C@@H](CC1CCCCC1)C(=O)O; AEEA = NCCOCCOCC(=O)O; Dap = NC[CH](N)C(=O)O; Aoc = NCCCCCCCC(=O)O A value given as a limit tells only on which side of the number the result lay.

As a reminder, the IC50 is the midpoint of a concentration-inhibition curve.

Consider `CC(=O)N[C@H]1CSC(=O)[C@H](Cc2ccccc2)NC(=O)[C@H](Cc2ccccc2)NC(=O)COCCOCCNC1=O` [n7OFF] (Ac-C[AEEA]FF; thioester 1-C), for which the “AgrC activity, preliminary screening” value in series [1] (group-II) was “approximately as active as t-AIP-II, n7FF, and n8FF”; in series [2] (group-III), “modestly active”; in series [3] (group-IV), “modestly active”; in series [4] (group-I), “approximately as active as t-AIP-II, n7FF, and n8FF”. Further, the IC50 in series [1] (setting [5]) is 0.583 µM; in series [1] (setting [6]), 0.583 µM; in series [2] (setting [7]), 0.332 µM; in series [2] (setting [8]) it was 0.332 µM; in series [3] (setting [9]) it was 5.94 µM; in series [3] (setting [10]), 5.94 µM. Also, the IC50 in series [4] (setting [11]) and in series [4] (setting [12]) was 0.181 µM in each case. In addition, the “more soluble in water than n7FF” value in the series “Solubility in water” was “approximately 100 fold”. The “more potent than n7FF” value in series [4] (group-I) is roughly 2 fold.
Take `CC(=O)NC1CSC(=O)C(Cc2ccccc2)NC(=O)C(Cc2ccccc2)NC(=O)CCCCCCCCNC1=O` (stereo not shown) [n8FF]: the IC50 was 0.479 µM in series [1] (setting [5]), 0.125 µM in series [2] (setting [7]), 3.49 µM in series [3] (setting [9]) and 0.468 µM in series [4] (setting [11]). The “less potent than n7FF” value in series [2] (group-III) and in series [3] (group-IV) was 4 fold throughout. In the series “Solubility in water”, the “water solubility” value is “relatively low water solubilities; also recorded: less soluble than AIP-III D4A in water”.
For `CC(=O)N[C@H]1CSC(=O)[C@H](Cc2cccc(F)c2)NC(=O)[C@H](CC2CCCCC2)NC(=O)COCCOCCNC1=O` [n7OCha3fF] (Ac-C[AEEA][Cha][Phe(3-F)]; thioester 1-C), the IC50 in series [1] (setting [6]) stood at 1.38 µM; in series [2] (setting [8]), 0.035 µM; in series [3] (setting [10]), 0.597 µM; in series [4] (setting [12]), 0.109 µM.
Turning to `CC(=O)N[C@H]1CSC(=O)[C@H](Cc2cccc(F)c2)NC(=O)[C@H](Cc2ccccc2)NC(=O)COCCOCCNC1=O` [n7OF3fF] (Ac-C[AEEA]F[Phe(3-F)]; thioester 1-C), the IC50 in series [1] (setting [6]) is 1.21 µM; in series [2] (setting [8]), 0.171 µM; in series [3] (setting [10]) it was greater than 5 µM; in series [4] (setting [12]) it was 0.04 µM.
Taken in the same sequence, the figures for `CC(=O)N[C@H]1CSC(=O)[C@H](Cc2cccc(F)c2)NC(=O)[C@H](CC2CCCCC2)NC(=O)CCCCCCCNC1=O` [n7Cha3fF] (Ac-C[Aoc][Cha][Phe(3-F)]; thioester 1-C) were 2.34 µM, 0.019 µM, 1.16 µM and 0.429 µM.
For `CC(=O)N[C@H]1CSC(=O)[C@H](Cc2ccccc2)NC(=O)[C@H](Cc2ccccc2)NC(=O)CCCCCCCNC1=O` [n7FF] (Ac-C[Aoc]FF; thioester 1-C), the “IC50 relative to that of t-AIP-II” value in series [1] (group-II), in series [2] (group-III), in series [3] (group-IV) and in series [4] (group-I) was 3-7 fold throughout. The “AgrC activity, preliminary screening” value in series [1] (group-II), in series [2] (group-III), in series [3] (group-IV) and in series [4] (group-I) was “minimal levels” in each case. Besides, the IC50 came out at 0.495 µM in series [1] (setting [5]), 0.0348 µM in series [2] (setting [7]), 0.985 µM in series [3] (setting [9]) and 0.34 µM in series [4] (setting [11]). The “water solubility” value in “Solubility in water” is “relatively low water solubilities; also recorded: less soluble than AIP-III D4A in water”.
As to `CC(=O)N[C@H]1CSC(=O)[C@H](Cc2ccccc2)NC(=O)[C@H](CC2CCCCC2)NC(=O)COCCOCCNC1=O` [n7OChaF] (Ac-C[AEEA][Cha]F; thioester 1-C), the IC50 came to 0.79 µM in series [1] (setting [6]), 0.205 µM in series [2] (setting [8]), 1.08 µM in series [3] (setting [10]) and 0.998 µM in series [4] (setting [12]).
In the case of `CC(=O)NC1CNC(=O)C(Cc2ccccc2)NC(=O)C(Cc2ccccc2)NC(=O)CCCCCCCNC1=O` (stereo not shown) [n7FF amide] (Ac-[Dap][Aoc]FF; lactam 1-C; configuration not given here), the “AgrC activity, preliminary screening” value in series [1] (group-II) was “minimal levels”; in series [2] (group-III), “minimal levels”; in series [3] (group-IV) it was “virtually no inhibition”; in series [4] (group-I) it was “far less active”. The figures for the IC50 in series [1] (setting [5]), in series [2] (setting [7]) and in series [4] (setting [11]) were 2.2 µM, 0.573 µM and 3.94 µM, respectively. Further, the “water solubility” value in the series “Solubility in water” was “markedly more soluble in water than their parent thiolactones”.
With `CC(=O)N[C@H]1CSC(=O)[C@H](Cc2cccc(Cl)c2)NC(=O)[C@H](Cc2ccccc2)NC(=O)COCCOCCNC1=O` [n7OF3clF] (Ac-C[AEEA]F[Phe(3-Cl)]; thioester 1-C), the IC50 is 0.217 µM in series [1] (setting [6]), 1.14 µM in series [2] (setting [8]) and 0.225 µM in series [4] (setting [12]).
With `CC(=O)N[C@H]1CSC(=O)[C@H](Cc2ccc(Cl)cc2)NC(=O)[C@H](Cc2ccccc2)NC(=O)COCCOCCNC1=O` [n7OF4clF] (Ac-C[AEEA]F[Phe(4-Cl)]; thioester 1-C), the concentration for half-maximal inhibition (IC50) is 0.113 µM in series [1] (setting [6]), 2.48 µM in series [2] (setting [8]), greater than 5 µM in series [3] (setting [10]) and 2.59 µM in series [4] (setting [12]).
Regarding `CC(=O)NC1CNC(=O)C(Cc2ccccc2)NC(=O)C(Cc2ccccc2)NC(=O)COCCOCCNC1=O` (stereo not shown) [n7OFF amide] (Ac-[Dap][AEEA]FF; lactam 1-C; configuration not given here), the “AgrC activity, preliminary screening” value in series [1] (group-II), in series [2] (group-III), in series [3] (group-IV) and in series [4] (group-I) was “no significant activity” in each case. Further, the IC50 in series [1] (setting [5]), in series [2] (setting [7]), in series [3] (setting [9]) and in series [4] (setting [11]) was greater than 10 µM in each case. Besides, in the series “Solubility in water”, the “water solubility” value is “markedly more soluble in water than their parent thiolactones”.
For the compound `CC(=O)N[C@H]1CNC(=O)[C@H](Cc2ccccc2)NC(=O)[C@H](Cc2ccccc2)NC(=O)CCCCCCCCNC1=O` [n8FF amide], the “AgrC activity, preliminary screening” value is “minimal levels” in series [1] (group-II), “minimal levels” in series [2] (group-III), “virtually no inhibition” in series [3] (group-IV) and “far less active” in series [4] (group-I). The IC50 in series [1] (setting [5]) was determined as 1.34 µM; in series [2] (setting [7]), 2.61 µM; in series [4] (setting [11]) it was 4.74 µM. Besides, the “water solubility” value in the series “Solubility in water” is recorded as “markedly more soluble in water than their parent thiolactones”.
